Laboratory results reported in patent publication US20040242591A1, “Oxazolidinone derivatives as pontential antimicrobials” (priority 2001, published 2004).

Legend:
[1] = system: VRE 6A; experiment: MIC by agar incorporation method, VRE 6A; format: cell-based, Enterococcus faecium; design: unit not given here; conditions: Mueller Hinton agar, 10^4 CFU/spot, 18 hours
Text: 4) Ent. faecium […]—Enterococcus faecium 6A Van®, Cipro®

[2] = system: Strep.pyog. ATCC 19615; experiment: MIC by agar incorporation method, S.pyogenes 19615; format: cell-based, Streptococcus pyogenes; design: unit not given here; conditions: Mueller Hinton agar, 10^4 CFU/spot, 18 hours
Text: 6) Strep.pyog. ATCC 19615—Streptococcus pyogenes

[3] = system: Strep. pne. ATCC 6303; experiment: MIC by agar incorporation method, S. pneum 6303; format: cell-based, Streptococcus pneumoniae; conditions: Mueller Hinton agar, 10^4 CFU/spot, 18 hours
Text: 5) Strep. pne. ATCC 6303—Streptococcus pneumoniae ATCC 6303

[4] = system: MRSA 33; experiment: MIC by agar incorporation method, MRSA 33; format: cell-based, Methicillin Resistant Staphylococcus aureus; design: unit not given here; conditions: Mueller Hinton agar, 10^4 CFU/spot, 24 hours
[5] = system: Ent. faecalis ATCC 29212; experiment: MIC by agar incorporation method, E.faecalis 29212; format: cell-based, Enterococcus faecalis; design: unit not given here; conditions: Mueller Hinton agar, 10^4 CFU/spot, 18 hours
Text: 3) Ent. faecalis ATCC 29212—Enterococcus faecalis ATCC 29212

[6] = system: MRSA 15187; experiment: MIC by agar incorporation method, MRSA 15187; format: cell-based, Methicillin Resistant Staphylococcus aureus; design: unit not given here; conditions: Mueller Hinton agar, 10^4 CFU/spot, 24 hours
Text: 2) MRSA 15187—Methicillin Resistant Staphylococcus aureus

[7] = system: MRSA 562; experiment: MIC by agar incorporation method, MRSA 562; format: cell-based, Methicillin Resistant Staphylococcus aureus; design: unit not given here; conditions: Mueller Hinton agar, 10^4 CFU/spot, 24 hours
[8] = system: S.aureus ATCC 25923; experiment: MIC by agar incorporation method, S.aureus 25923; format: cell-based, Staphylococus aureus; design: unit not given here; conditions: Mueller Hinton agar, 10^4 CFU/spot, 18 hours
[9] = system: S. pneum AB 34; experiment: MIC by agar incorporation method, S. pneum AB 34; format: cell-based, Streptococcus pneumoniae; design: unit not given here; conditions: Mueller Hinton agar, 10^4 CFU/spot, 18 hours

Row | Structure (SMILES) | In Vitro (MIC) VRE 6A [1] | In Vitro (MIC) S.pyogenes 19615 [2] | In Vitro (MIC) S. pneum 6303 [3] [µg/mL] | In Vitro (MIC) MRSA 33 [4] | In Vitro (MIC) E.faecalis 29212 [5] | In Vitro (MIC) MRSA 15187 [6] | In Vitro (MIC) MRSA 562 [7] | In Vitro (MIC) S.aureus 25923 [8] | In Vitro (MIC) S. pneum AB 34 [9]
1 | CC(=O)NC[C@H]1CN(c2ccc(N3CCN(CC(=O)c4cccs4)CC3)c(F)c2)C(=O)O1 [Compound No. 2, (S)-N-[[3-[3-Fluoro-4-[N-1-[4-(2-thiophenoyl-methyl}]piperazinyl]phenyl]-2-oxo-5-oxazolidinyl]methyl]acetamide] | 8 | 2 | 2 | 4 | 8 | 8 | 4 | 8 | 8
2 | CC(=O)NC[C@H]1CN(c2ccc(N3CCN(Cc4cc(Br)c([N+](=O)[O-])s4)CC3)c(F)c2)C(=O)O1 [Compound No. 4] | 2 | 4 | 4 | 2 | 2 | 1 | 1 | 2 | 4
3 | CC(=O)NC[C@H]1CN(c2ccc(N3CCN(Cc4oc([N+](=O)[O-])cc4C)CC3)c(F)c2)C(=O)O1 [Compound No. 5] | 4 | 0.5 | 1 | 0.254 | 2 | 2 | 2 | 2 | 1
4 | CC(=O)NC[C@H]1CN(c2ccc(N3CCN(Cc4cc(C#N)c([N+](=O)[O-])s4)CC3)c(F)c2)C(=O)O1 [Compound No. 6] | 8 | 1 | 1 | 2 | 4 | 2 | 2 | 2 | 1
5 | CC(=O)NC[C@H]1CN(c2ccc(N3CCN(Cc4coc([N+](=O)[O-])c4)CC3)c(F)c2)C(=O)O1 [Compound No. 8, (S)-N-[[3-[3-Fluoro-4-[N-1-[4-{3-furyl(5-nitro)methyl}]piperazinyl]phenyl]-2-oxo-5-oxazolidinyl]methyl]acetamide] | 4 | 4 | 8 | 4 | 8 | 8 | 4 | 8 | 16
6 | CC(=O)NC[C@H]1CN(c2ccc(N3CCN(Cc4cc([N+](=O)[O-])cn4C)CC3)c(F)c2)C(=O)O1 [Compound No. 11] | 4 | 2 | 2 | 4 | 4 | 4 | 4 | 4 | 4
7 | CC(=O)NC[C@H]1CN(c2ccc(N3CCN(Cc4ccc([N+](=O)[O-])n4C)CC3)c(F)c2)C(=O)O1 [Compound No. 12, (S)-N-[[3-[3-Fluoro-4-[N-1-[4-{2-pyrrole-(1-methyl-5-nitro)methyl}]piperazinyl]phenyl]-2-oxo-5-oxazolidinyl]methyl]acetamide] | 4 | 2 | 8 | 4 | 4 | 4 | 4 | 4 | 8
8 | CC(=O)NC[C@H]1CN(c2ccc(N3CCN(Cc4ccc([N+](=O)[O-])[nH]4)CC3)c(F)c2)C(=O)O1 [Compound No. 13, (S)-N-[[3-[3-Fluoro-4-[N-1-[4-{2-pyrrole-(5-nitro)methyl}]piperazinyl]phenyl]-2-oxo-5-oxazolidinyl]methyl]acetamide] | 4 | 1 | 4 | 4 | 4 | 2 | 4 | 4 | 4
9 | CC(=O)NC[C@H]1CN(c2ccc(N3CCN(Cc4cc([N+](=O)[O-])cs4)CC3)c(F)c2)C(=O)O1 [Compound No. 14, (S)-N-[[3-[3-Fluoro-4-[N-1-[4-{2-thiophen-(4-nitro-)methyl-}]piperazinyl]phenyl]-2-oxo-5-oxazolidinyl]methyl]acetamide] | 2 | 0.5 | 2 | 0.25 | 4 | 0.25 | 0.25 | 0.25 | 1
10 | COc1ccc(CN2CCN(c3ccc(N4C[C@H](CNC(C)=O)OC4=O)cc3F)CC2)o1 [Compound No. 15, (S)-N-[[3-[3-Fluoro-4-[N-1-[4-{2-furyl-(5-methoxy)methyl}]piperazinyl]phenyl]-2-oxo-5-oxazolidinyl]methyl]acetamide] | 4 | 2 | 2 | 4 | 4 | 4 | 4 | 4 | 2
11 | CC(=O)NC[C@H]1CN(c2ccc(N3CCC(CN(C)Cc4ccc([N+](=O)[O-])o4)CC3)c(F)c2)C(=O)O1 [Compound No. 95] | 0.5 |  |  | 1 | <0.25 | 1 | 0.5 | 1 | 
